Source: patent US20240287164A1, “ANTIBODIES SPECIFIC TO NELL2 AND METHODS OF USE” (BOARD OF REGENTS, THE UNIVERSITY OF TEXAS SYSTEM, priority 2021, published 2024)
“Also recorded” adds a separate entry of the source. One block for each molecule: values may come before it. Where a SMILES comes first, the peptide text is derived from it. The star is where a group is joined. Cbz = O=C(OCc1ccccc1)*

What was measured:
BAF complexes = assay: BAF subunit protein levels by immunoblotting in Ewing sarcoma cells; assay type: cell-based, human
Description: Immunoblotting. […] The following antibodies were used: rabbit polyclonal anti-FLI1 (ab15289, Abcam); mouse monoclonal anti-FLAG M2 (F1804, MilliporeSigma): rabbit monoclonal anti-NELL2 (ab181376, Abcam); goat polyclonal anti-PGK1 (sc-17943, Santa Cruz Biotechnology); rabbit polyclonal anti-Robo3 (LS-C345713, LSBio); goat polyclonal anti-Robo3 (PA5-18714, Thermo Fisher Scientific); mouse monoclonal anti-cdc42 (ACD03, Cytoskeleton); rabbit polyclonal anti-Rac1/2/3 (2465, Cell Signaling Technologies); rabbit polyclonal anti-Rho A (2117, Cell Signaling Technologies); goat polyclonal anti-BRG1 (A303-877A, Bethyl Laboratories); rabbit monoclonal anti-BRG1 (49360, Cell Signaling Technologies); rabbit polyclonal anti-BRM (A301-014A-T, Bethyl Laboratories); mouse monoclonal anti-ARID1A/BAF250) (sc-32761, Santa Cruz Biotechnology); rabbit polyclonal anti-BAF170 (A301-039A-T, Bethyl Laboratories); rabbit monoclonal anti-BAF155 (11956, Cell Signaling Technologies); rabbit polyclonal anti-BAF60B (A301-596A-T, Bethyl Laboratories); rabbit polyclonal anti-BAF57 (A300-810A-T, Bethyl Laboratories); rabbit polyclonal anti-BAF53A (A301-391A-T, Bethyl Laboratories); rabbit monoclonal anti-BAF47 (8745, Cell Signaling Technologies); rabbit polyclonal anti-BRD9 (A303-781A-T, Bethyl Laboratories); rabbit monoclonal anti-SS18 (21792, Cell Signaling Technologies); rabbit monoclonal anti-CD133 (64326, Cell Signaling Technologies); rabbit polyclonal anti-srGAP1 (A301-286A-T, Bethyl Laboratories); rabbit polyclonal anti-srGAP2 (GTX130797, GeneTex); mouse monoclonal anti-tubulin (DMIA, Thermo Fisher Scientific); rabbit polyclonal anti-β-actin (4967, Cell Signaling Technologies); mouse monoclonal anti-Rpb1 (2629, Cell Signaling Technologies); rabbit monoclonal anti-cdc6 (3387, Cell Signaling Technologies); rabbit monoclonal anti-caveolin-1 (3267, Cell Signaling Technologies); rabbit polyclonal anti-phospho-caveolin-1 (3251, Cell Signaling Technologies); rabbit monoclonal anti-Src (2123, Cell Signaling Technologies); rabbit monoclonal anti-phospho-Src Family (6943, Cell Signaling Technologies); and rabbit polyclonal anti-GDF6 (NBP1-91934, Novus Biologicals). The following HRP-conjugated secondary antibodies were used: goat anti-rabbit (7074) and goat anti-mouse (7076) (Cell Signaling Technologies); donkey anti-goat (A50)-201P, Bethyl Laboratories).

Robo3 = target: T1, Robo3 (Homo sapiens, UniProt Q96MS0); assay: NELL2-FLAG ligand-binding assay in A-673 cells; settings: FIG. 2B
T1 construct: endogenous in cells; host or cells: A-673 Ewing sarcoma cells
T1 sequence (Q96MS0 21-1386): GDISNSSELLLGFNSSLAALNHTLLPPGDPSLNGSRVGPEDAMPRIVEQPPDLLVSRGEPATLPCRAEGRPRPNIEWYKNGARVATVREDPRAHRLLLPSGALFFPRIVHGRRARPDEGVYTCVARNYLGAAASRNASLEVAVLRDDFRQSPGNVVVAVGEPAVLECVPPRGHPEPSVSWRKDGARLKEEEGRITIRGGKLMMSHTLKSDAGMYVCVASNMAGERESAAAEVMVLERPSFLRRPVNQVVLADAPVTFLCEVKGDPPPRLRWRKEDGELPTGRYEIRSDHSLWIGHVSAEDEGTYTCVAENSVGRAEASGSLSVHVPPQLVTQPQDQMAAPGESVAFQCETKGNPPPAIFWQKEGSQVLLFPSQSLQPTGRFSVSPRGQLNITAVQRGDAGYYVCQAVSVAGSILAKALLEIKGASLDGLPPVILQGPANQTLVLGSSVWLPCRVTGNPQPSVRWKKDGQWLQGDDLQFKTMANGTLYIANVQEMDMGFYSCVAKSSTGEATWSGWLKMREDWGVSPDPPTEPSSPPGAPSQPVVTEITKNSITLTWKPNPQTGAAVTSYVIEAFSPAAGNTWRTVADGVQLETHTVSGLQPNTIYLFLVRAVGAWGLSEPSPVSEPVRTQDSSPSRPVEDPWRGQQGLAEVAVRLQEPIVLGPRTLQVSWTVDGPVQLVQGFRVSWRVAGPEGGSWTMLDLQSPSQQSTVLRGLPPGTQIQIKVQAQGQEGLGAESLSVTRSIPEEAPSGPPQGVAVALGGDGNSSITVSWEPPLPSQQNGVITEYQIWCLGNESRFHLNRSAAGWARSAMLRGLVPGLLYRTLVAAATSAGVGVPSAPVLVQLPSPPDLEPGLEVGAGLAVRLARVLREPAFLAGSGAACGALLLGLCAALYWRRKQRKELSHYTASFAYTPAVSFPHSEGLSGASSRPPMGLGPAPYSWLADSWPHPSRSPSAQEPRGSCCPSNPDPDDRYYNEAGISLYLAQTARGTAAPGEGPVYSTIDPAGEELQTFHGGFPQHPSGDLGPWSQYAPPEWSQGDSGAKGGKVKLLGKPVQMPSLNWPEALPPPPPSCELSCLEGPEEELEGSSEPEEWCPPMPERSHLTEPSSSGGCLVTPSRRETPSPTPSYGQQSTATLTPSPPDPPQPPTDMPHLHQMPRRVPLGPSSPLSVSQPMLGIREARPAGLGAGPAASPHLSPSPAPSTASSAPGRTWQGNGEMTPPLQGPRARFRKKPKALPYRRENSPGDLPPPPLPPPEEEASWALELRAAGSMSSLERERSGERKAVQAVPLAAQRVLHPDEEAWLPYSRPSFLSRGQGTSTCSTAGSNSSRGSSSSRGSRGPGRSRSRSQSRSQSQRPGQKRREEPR
Method: Robo3 expression was readily detectable in Ewing sarcoma tumors and cell lines, but undetectable in mesenchymal stem cells (FIG. 2A). The role of Robo3 as the NELL2 receptor in Ewing sarcoma was tested using ligand-binding assays (FIG. 2B). C-terminally FLAG-tagged NELL2 was produced from transfected 293T/HEK293T cells and was incubated with A-673 cells that were transfected with Robo3 siRNA pool or control siRNA pool. After washing the cells to remove unbound NELL2-FLAG, a whole cell lysate was prepared and analyzed by immunoblotting to assess the binding of NELL2-FLAG to A-673 cells. […] The specificity of the NELL2-Robo3 interaction was further confirmed by ligand-binding assays using alkaline phosphatase-fused NELL2 (NELL2-AP) (FIG. 2C). NELL2-AP bound to COS cells expressing Robo3, but not Robo1 or vector (FIG. 2C).

Rac. Ras, or Rab = settings: Surviladze et al. 2010; cited from earlier work
CD133^low population [1] = assay: Proliferation of sorted CD133low population (IncuCyte); assay type: cell-based, human; settings: CD133^low population treated with ML141
Method: (§1) Cell proliferation and xenograft tumorigenicity assays. Anchorage-dependent cell proliferation was assessed by IncuCyte live-cell imaging system (Essen BioScience). The IncuCyte system monitors cell proliferation by analyzing the occupied area (% confluence) of cell images over time. At least four fields from four wells were assayed for each experimental condition. The cell seeding density was 2000 cells per well in a 96-well plate. For each assay, biological replicates were performed to confirm the reproducibility of results. Anchorage-independent cell proliferation was evaluated by soft agar colony formation assays. A-673 cells were infected with lentiviruses expressing shRNAs against NELL2 or scrambled shRNA and were selected with 2 μg/ml puromycin. Four days after infection, 4×10^3 cells were plated in soft agar. The soft agar cultures were composed of two layers; a base layer [4 ml in a 60-mm dish; DMEM/10% fetal bovine serum/0.6% noble agar (A5431, MilliporeSigma)/penicillin/streptomycin] and a cell layer (2 ml in a 60-mm dish; DMEM/10% fetal bovine serum/0.3% noble agar/penicillin/streptomycin). Colonies were grown for three weeks and counted. Colonies (>50 cells) were scored by randomly counting 10 fields per dish. Sphere formation assays were done (Dasgupta, A., et al. (2017) Oncotarget 8, 77292-77308) using ultra-low attachment 6-well plates (Corning: seeding density 1×10^4 cells/well) and DMEM/F-12 medium supplemented with B27, human recombinant epidermal growth factor (20 ng/ml), and basic fibroblast growth factor (20 ng/ml). For xenograft tumorigenicity assays, cells were subcutaneously injected into the flanks of SCID mice (2×10^6 cells/injection, five mice/group). Tumor growth was monitored weekly using a caliper. While it is not possible to predict the effect size, the sample size of five mice per group was chosen based on experience with xenograft experiments. Mice were randomly allocated to treatment groups. Blinding of the researcher measuring tumor size was employed.
Flow cytometry. […]

A-673 and EW8 cells = assay: Proliferation of NELL2- or Robo3-silenced Ewing sarcoma cells (IncuCyte); assay type: cell-based, human; settings: 5 μM ML141; A-673 and EW8 cells; FIG. 3E
Method: Transfection and viral infection. Calcium phosphate co-precipitation was used for transfection of 293T cells. Lentiviruses were prepared by transfection in 293T cells following System Biosciences' protocol, and the cells infected with lentiviruses were selected with 2 μg/mL puromycin for 48 hours. The target sequences for shRNAs are as follows: FLI1 C-terminus shRNA, […] (SEQ ID NO: 20); luciferase shRNA, […] (SEQ ID NO: 21); NELL2 shRNA-1, […] (SEQ ID NO: 22); and NELL2 shRNA-2, […] (SEQ ID NO: 23). The following siRNAs were used: human NELL2 siRNA SMARTpool (M-012185-00); Dharmacon), human Robo3 siRNA SMARTpool (M-026504-00; Dharmacon), human Robo3 siRNAs NM_022370 (SASI_Hs01_00099511, SASI_Hs01_00099512, SASI_Hs01_00099513, SASI_Hs01_00099514, SASI_Hs01_00099515 and SASI_Hs01_00099516; MilliporeSigma), human cdc42 siRNA SMARTpool (M-005057-01; Dharmacon), human CD133 siRNA SMARTpool (M-010630-01; Dharmacon), human srGAP1 siRNA SMARTpool (M-026974-00; Dharmacon), srGAP2 siRNA SMARTpool (M-021531-03; Dharmacon), human caveolin-1 siRNA SMARTpool (M-003467-01; Dharmacon), human GDF6 siRNA SMARTpool (M-0330055-01; Dharmacon), and Non-Targeting siRNA Pool #2 (D-0012Jun. 14, 2005; Dharmacon), siRNA transfection of cell lines was performed using Lipofectamine™ RNAiMAX Transfection Reagent (Thermo Fisher).
Cell proliferation and xenograft tumorigenicity assays. Anchorage-dependent cell proliferation was assessed by IncuCyte live-cell imaging system (Essen BioScience). The IncuCyte system monitors cell proliferation by analyzing the occupied area (% confluence) of cell images over time. At least four fields from four wells were assayed for each experimental condition. The cell seeding density was 2000 cells per well in a 96-well plate. […] Anchorage-independent cell proliferation was evaluated by soft agar colony formation assays. […] Colonies were grown for three weeks and counted. Colonies (>50 cells) were scored by randomly counting 10 fields per dish. […] Tumor growth was monitored weekly using a caliper. […]

CD133^low population [2] = assay: Chemotherapeutic drug treatment of CD133high and CD133low populations; assay type: cell-based, human; settings: for CD133low population after prolonged treatment: FIG. 4M
Method: Flow cytometry. Cells were trypsinized, washed with FACS wash buffer (PBS, 0.5% BSA, 2 mM EDTA), and incubated with PE-conjugated human CD133/1 antibody (clone AC133, Miltenyi Biotec; 1:100 in FACS wash buffer) for 20 minutes at 4° C. Cells were washed three times with FACS wash buffer and the CD133^high and CD133^low cell populations were sorted by using BD FACSAria (Becton Dickinson). The FACSDiva 6.1.3 software (Becton Dickinson) was used for sample analysis.

A673 Ewing sarcoma cells = assay: Growth inhibition screen of anti-NELL2 hybridoma clones / mAbs on Ewing sarcoma cell proliferation; assay type: cell-based, human; settings: mAbs used at 1 μg/ml, FIG. 6
Method: as §1, with “Sphere formation assays were done (Dasgupta, A., et al. (2017) Oncotarget 8, 77292-77308) using ultra-low attachment 6-well plates (Corning: seeding density 1×10^4 cells/well) and DMEM/F-12 medium supplemented with B27, human recombinant epidermal growth factor (20 ng/ml), and basic fibroblast growth factor (20 ng/ml). For xenograft tumorigenicity assays, cells were subcutaneously injected into the flanks of SCID mice (2×10^6 cells/injection, five mice/group).” left out, “While it is not possible to predict the effect size, the sample size of five mice per group was chosen based on experience with xenograft experiments. Mice were randomly allocated to treatment groups. Blinding of the researcher measuring tumor size was employed.” left out

[3] = target: T2, NELL2 EGF-like repeats (residue 397-637) (Homo sapiens (Human), UniProt Q99435 397-637); assay: immunogen ELISA of hybridoma clones
T2 construct: also called EGF-like repeat domain of NELL2; immunogen
T2 sequence (Q99435 397-637 limits assumed): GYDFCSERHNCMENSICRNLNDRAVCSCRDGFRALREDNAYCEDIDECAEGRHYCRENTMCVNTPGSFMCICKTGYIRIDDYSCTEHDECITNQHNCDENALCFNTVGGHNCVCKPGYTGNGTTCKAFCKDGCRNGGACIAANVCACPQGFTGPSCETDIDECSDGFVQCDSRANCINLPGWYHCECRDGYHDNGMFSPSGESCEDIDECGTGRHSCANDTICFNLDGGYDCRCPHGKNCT

Molecule: CC(C)C[C@@H](C=O)NC(=O)[C@H](CC(C)C)NC(=O)[C@H](CC(C)C)NC(=O)OCc1ccccc1 [MG-132, reference compound] (Cbz-Leu-Leu-Leu-aldehyde)
Protein levels of BRG1, BAF250A, BAF155, and BAF47 reduced by CN04, effect of proteasome inhibitor (BAF complexes; CN04 treatment plus MG-132): restored

Binding to control siRNA transfected A-673 cells (Robo3): bound | Binding to Robo3-silenced A-673 cells (Robo3; Robo3 siRNA pool): abolished
Molecule: NELL2-FLAG: C-terminally FLAG-tagged NELL2 produced from transfected 293T/HEK293T cells

Molecule: ML141 [reference compound]
Inhibition of Rac, Ras, or Rab (Rac. Ras, or Rab): does not inhibit | Cell proliferation of CD133low population (CD133^low population [1]): increased cell proliferation | BRG1, BAF155, and BAF47 protein levels in CD133low population (BAF complexes; CD133^low population treated with ML141): increased BRG1, BAF155, and BAF47 protein levels | Reduction of BRG1, BAF250A, BAF155, and BAF47 by NELL2 silencing, effect of cdc42 inhibitor (BAF complexes; Ewing sarcoma cells, NELL2 silencing): abolished this response | Proliferation inhibition by NELL2 silencing or Robo3 silencing, effect of cdc42 inhibitor (A-673 and EW8 cells): abrogates the proliferation inhibition; also recorded: abolished

Molecule: N.N.[Cl][Pt][Cl] [cisplatin]
Resistance of CD133low versus CD133high population to the drug (CD133^low population [2]): more resistant | CD133low population after prolonged treatment (CD133^low population [2]): enriched the CD133^low population

Molecule: COc1cccc2c1C(=O)c1c(O)c3c(c(O)c1C2=O)C[C@@](O)(C(=O)CO)C[C@@H]3O[C@H]1C[C@H](N)[C@H](O)[C@H](C)O1 [doxorubicin]
Resistance of CD133low versus CD133high population to the drug (CD133^low population [2]): more resistant | CD133low population after prolonged treatment (CD133^low population [2]): enriched the CD133^low population

binding result [3]: binds
B1: anti-NELL2 mouse monoclonal antibody clone #15 (antibody, V domains shown)
VH: EVKLVESGGGLVQPGGSLKLSCATSGFTFSDYYLYWVRQTPEKRLEWVAYISNGGDITYYPDTVKGRFAISRDNAKNTLYLQMSRLKSEDTAMYYCARGRVRSYYGNPDAMDFWGQGTSVTVSS
VL: DVVMTQTPLSLPVSLGDQASISCRSSQSLVHSNGNTYLHWYLQKPGQSPKLLIYKVSKRFSGVPDRFSGSGSGTDFTLKITRVEAEDLGVYFCSQSIYVPHTFGGGTKLEIK
notes: Mouse hybridoma mAb; also called NELL2 mAb
Ewing sarcoma cell proliferation (A673 Ewing sarcoma cells): strongly inhibited

binding result [3]: binds
B2: anti-NELL2 mouse monoclonal antibody clone #17 (antibody, V domains shown)
VH: DVQLVESGGGLVQPGGSRKLSCAASGFTFSSFGMHWVRQAPEKGLEWVAYVSGGSSTIYYADTVKGRFTISRDNPKNTLFLQMTSLRSEDTAMYYCARSFSLLRLPVYFDFWGQGTTLTVSS
VL: DIQMTQSPSSLSASLGERVSLTCRASQEISDYLTWLQQKPDGTIKRLIYAASTLDSGVPKRFSGSRSGSDYSLTISSLESEDFADYYCLQYASFPLTFGAGTKLELK
notes: as for B1
Ewing sarcoma cell proliferation (A673 Ewing sarcoma cells): strongly inhibited
